Each block holds one compound with its values, some of them ahead of it.
Assays:
[1] = molecular target: T1, serotonin transporters (SERT) (Rattus norvegicus, UniProt P31652); experiment: In vitro binding assay, LLC-SERT membrane homogenates, [^125I]IDAM; settings: 0.2 nM [^125I]IDAM, LLC-SERT membranes; read-out: Ki (SERT binding affinity) (converted)
T1 construct: expressed in transfected cells; host or cells: LLC-PK1 (LLC-SERT)
Procedure: The membrane homogenates of serotonin transporters (LLC-SERT, which were expressed in a common parental cell line LLC-PK1) were prepared and used for the binding assays. Competitive binding assays were performed in a final volume of 0.25 mL. […] Nonspecific binding was defined with 10 μM citalopram. Incubation was carried out for 60 min at room temperature and the bound ligand was collected on glass fiber filters presoaked with 1% polyethylenimine (SIGMA, St. Louis, MO) and counted in a gamma counter (Wizard^2, Perkin Elmer).

[2] = Biodistribution in rats of ^18F-III-3 (^18F-FPBM-D12); assay type: in vivo, rat; settings: for Biodistribution Blood / Biodistribution Bone / Biodistribution Brain / Biodistribution Heart / Biodistribution Kidney / Biodistribution Liver / Biodistribution Lung / Biodistribution Muscle / Biodistribution Pancreas / Biodistribution Skin / Biodistribution Spleen: normal rats, i.v.
Procedure: (§1) Three rats per group were used for each biodistribution study. While under isoflurane anesthesia, 0.2 mL of a saline solution containing 20 μCi of radioactive tracer was injected into the femoral vein. The rats were sacrificed at the time indicated by cardiac excision while under isoflurane anesthesia. Organs of interest were removed and weighed, and the radioactivity was counted. The percent dose per organ was calculated by comparing the tissue counts to counts of 1% of the initial dose (100 times diluted aliquots of the injected material) measured at the same time. Regional brain distribution in rats was measured after an iv injection of the radioactive tracer. Samples from different brain regions [cortex, striatum, hippocampus, cerebellum and hypothalamus] were dissected, weighed and counted. The percentage dose/g of each sample was calculated by comparing sample counts with the counts of the diluted initial dose described above. The ratio was calculated by dividing the percentage dose/g of each region by that of the cerebellum. The cerebellum was used as the reference region for calculating the ratio of target to non-target binding, because only a trace amount of SERT is present in the cerebellum.

SERT = molecular target: T2, SERT (Rattus norvegicus, UniProt P31652); experiment: Region to cerebellum ratio in rats, ^18F-III-3; assay type: in vivo; settings: normal rats, i.v.
T2 construct: host or cells: live rats, dissected brain regions
T2 sequence (P31652 whole entry): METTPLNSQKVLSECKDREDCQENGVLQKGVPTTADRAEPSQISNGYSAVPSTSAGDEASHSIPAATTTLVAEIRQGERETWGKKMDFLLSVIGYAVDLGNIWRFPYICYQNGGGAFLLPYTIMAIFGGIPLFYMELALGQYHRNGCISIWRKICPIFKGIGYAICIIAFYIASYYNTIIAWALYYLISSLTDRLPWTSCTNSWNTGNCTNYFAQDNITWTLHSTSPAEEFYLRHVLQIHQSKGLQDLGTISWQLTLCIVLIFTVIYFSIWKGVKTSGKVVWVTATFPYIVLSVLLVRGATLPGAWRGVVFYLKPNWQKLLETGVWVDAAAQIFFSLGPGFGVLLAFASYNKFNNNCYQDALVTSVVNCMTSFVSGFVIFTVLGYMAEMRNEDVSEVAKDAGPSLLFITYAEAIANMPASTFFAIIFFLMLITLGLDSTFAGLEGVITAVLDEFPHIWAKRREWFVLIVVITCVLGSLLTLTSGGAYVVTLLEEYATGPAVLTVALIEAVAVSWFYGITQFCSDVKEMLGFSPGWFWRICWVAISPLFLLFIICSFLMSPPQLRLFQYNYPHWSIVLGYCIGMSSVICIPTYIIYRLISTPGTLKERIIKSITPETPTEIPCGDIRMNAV
Procedure: as §1

T1 sequence (P31652 whole entry): as above

Ki [1]: 3.05 ± 0.81 nM
SMILES: [2H]C([2H])([2H])NCc1cc(OCCCF)ccc1Sc1ccccc1N [III-6-8]

Ki [1]: 44.9 ± 2.5 nM
SMILES: [2H]C([2H])(F)C([2H])([2H])C([2H])([2H])Oc1ccc(Sc2ccccc2N)c(CN)c1 [III-5-8]

Ki [1]: 0.008 nM
SMILES: [2H]C([2H])(F)C([2H])([2H])C([2H])([2H])Oc1ccc(Sc2ccc(I)cc2N)c(CN(C)C)c1 [III-4-28]

Ki [1]: 39.3 ± 11.9 nM
SMILES: NCc1cc(OCCCF)ccc1Sc1ccccc1N [III-5-5]

Further lines, the compound ahead of its results:

SMILES: [2H]C([2H])(F)C([2H])([2H])C([2H])([2H])Oc1ccc(Sc2ccc(Cl)cc2N)c(CN(C)C)c1 [III-4-25]
Ki [1]: 0.009 nM

SMILES: CN(C)Cc1cc(O)ccc1Sc1ccc(Cl)cc1N [III-4-17]
Ki [1]: 0.03 nM

SMILES: CN(C)Cc1cc(OCCCF)ccc1Sc1ccc(F)cc1N
Ki [1]: 0.022 ± 0.016 nM

SMILES: [2H]C([2H])([2H])N(Cc1cc(OC([2H])([2H])C([2H])([2H])C([2H])([2H])[18F])ccc1Sc1ccccc1N)C([2H])([2H])[2H] [^18F-III-3 (^18F-FPBM-D12)]
Biodistribution Blood ([2]; 2 min): 0.25 ± 0.04 % Dose/g
Biodistribution Bone ([2]; 2 min): 0.35 ± 0.06 % Dose/g
Biodistribution Brain ([2]; 2 min): 1.09 ± 0.06 % Dose/g
Biodistribution Heart ([2]; 2 min): 1.19 ± 0.18 % Dose/g
Biodistribution Kidney ([2]; 2 min): 3.02 ± 0.16 % Dose/g
Biodistribution Liver ([2]; 2 min): 0.74 ± 0.16 % Dose/g
Biodistribution Lung ([2]; 2 min): 9.56 ± 2.29 % Dose/g
Biodistribution Muscle ([2]; 2 min): 0.14 ± 0.02 % Dose/g
Biodistribution Pancreas ([2]; 2 min): 1.13 ± 0.02 % Dose/g
Biodistribution Skin ([2]; 2 min): 0.22 ± 0.04 % Dose/g
Biodistribution Spleen ([2]; 2 min): 1.48 ± 0.31 % Dose/g
Biodistribution Blood ([2]; 30 min): 0.16 ± 0.03 % Dose/g
Biodistribution Bone ([2]; 30 min): 0.19 ± 0.01 % Dose/g
Biodistribution Brain ([2]; 30 min): 0.81 ± 0.04 % Dose/g
Biodistribution Heart ([2]; 30 min): 0.18 ± 0.02 % Dose/g
Biodistribution Kidney ([2]; 30 min): 1.79 ± 0.38 % Dose/g
Biodistribution Liver ([2]; 30 min): 0.30 ± 0.05 % Dose/g
Biodistribution Lung ([2]; 30 min): 1.86 ± 0.42 % Dose/g
Biodistribution Muscle ([2]; 30 min): 0.09 ± 0.02 % Dose/g
Biodistribution Pancreas ([2]; 30 min): 0.27 ± 0.06 % Dose/g
Biodistribution Skin ([2]; 30 min): 0.19 ± 0.03 % Dose/g
Biodistribution Spleen ([2]; 30 min): 0.88 ± 0.05 % Dose/g
Biodistribution Blood ([2]; 60 min): 0.10 ± 0.02 % Dose/g
Biodistribution Bone ([2]; 60 min): 0.16 ± 0.02 % Dose/g
Biodistribution Brain ([2]; 60 min): 0.54 ± 0.05 % Dose/g
Biodistribution Heart ([2]; 60 min): 0.09 ± 0.01 % Dose/g
Biodistribution Kidney ([2]; 60 min): 1.29 ± 0.29 % Dose/g
Biodistribution Liver ([2]; 60 min): 0.22 ± 0.02 % Dose/g
Biodistribution Lung ([2]; 60 min): 0.85 ± 0.11 % Dose/g
Biodistribution Muscle ([2]; 60 min): 0.07 ± 0.01 % Dose/g
Biodistribution Pancreas ([2]; 60 min): 0.19 ± 0.02 % Dose/g
Biodistribution Skin ([2]; 60 min): 0.16 ± 0.01 % Dose/g
Biodistribution Spleen ([2]; 60 min): 0.46 ± 0.10 % Dose/g
Biodistribution Blood ([2]; 120 min): 0.06 ± 0.00 % Dose/g
Biodistribution Bone ([2]; 120 min): 0.13 ± 0.01 % Dose/g
Biodistribution Brain ([2]; 120 min): 0.31 ± 0.03 % Dose/g
Biodistribution Heart ([2]; 120 min): 0.05 ± 0.01 % Dose/g
Biodistribution Kidney ([2]; 120 min): 0.83 ± 0.39 % Dose/g
Biodistribution Liver ([2]; 120 min): 0.16 ± 0.01 % Dose/g
Biodistribution Lung ([2]; 120 min): 0.45 ± 0.10 % Dose/g
Biodistribution Muscle ([2]; 120 min): 0.03 ± 0.01 % Dose/g
Biodistribution Pancreas ([2]; 120 min): 0.13 ± 0.07 % Dose/g
Biodistribution Skin ([2]; 120 min): 0.10 ± 0.02 % Dose/g
Biodistribution Spleen ([2]; 120 min): 0.21 ± 0.04 % Dose/g
blood-brain-barrier penetration ([2]; rats, after i.v. injection): penetrated the blood-brain-barrier
Region to Cerebellum Ratio: Cerebellum (SERT; 2 min): 1.00 ± 0.00
Region to Cerebellum Ratio: Cortex (SERT; 2 min): 1.44 ± 0.27
Region to Cerebellum Ratio: Hippocampus (SERT; 2 min): 0.97 ± 0.13
Region to Cerebellum Ratio: Hypothalamus (SERT; 2 min): 1.17 ± 0.21
Region to Cerebellum Ratio: Remainder (SERT; 2 min): 1.21 ± 0.13
Region to Cerebellum Ratio: Striatum (SERT; 2 min): 1.15 ± 0.18
Region to Cerebellum Ratio: Cerebellum (SERT; 30 min): 1.00 ± 0.00
Region to Cerebellum Ratio: Cortex (SERT; 30 min): 1.81 ± 0.30
Region to Cerebellum Ratio: Hippocampus (SERT; 30 min): 2.04 ± 0.27
Region to Cerebellum Ratio: Hypothalamus (SERT; 30 min): 2.99 ± 0.46
Region to Cerebellum Ratio: Remainder (SERT; 30 min): 2.42 ± 0.13
Region to Cerebellum Ratio: Striatum (SERT; 30 min): 2.43 ± 0.38
Region to Cerebellum Ratio: Cerebellum (SERT; 60 min): 1.00 ± 0.00
Region to Cerebellum Ratio: Cortex (SERT; 60 min): 2.68 ± 0.35
Region to Cerebellum Ratio: Hippocampus (SERT; 60 min): 3.45 ± 0.42
Region to Cerebellum Ratio: Hypothalamus (SERT; 60 min): 5.32 ± 0.45
Region to Cerebellum Ratio: Remainder (SERT; 60 min): 3.77 ± 0.43
Region to Cerebellum Ratio: Striatum (SERT; 60 min): 3.96 ± 0.62
Region to Cerebellum Ratio: Cerebellum (SERT; 120 min): 1.00 ± 0.00
Region to Cerebellum Ratio: Cortex (SERT; 120 min): 2.67 ± 0.50
Region to Cerebellum Ratio: Hippocampus (SERT; 120 min): 3.85 ± 0.28
Region to Cerebellum Ratio: Hypothalamus (SERT; 120 min): 7.55 ± 0.82
Region to Cerebellum Ratio: Remainder (SERT; 120 min): 4.74 ± 0.71
Region to Cerebellum Ratio: Striatum (SERT; 120 min): 4.69 ± 1.26

SMILES: [2H]C([2H])([2H])N(Cc1cc(OC([2H])([2H])C([2H])([2H])C([2H])([2H])F)ccc1Sc1ccccc1N)C([2H])([2H])[2H] (single isomer, unassigned) [III-3 (FPBM- D12)]
Ki [1]: 0.086 ± 0.029 nM

SMILES: CN(C)Cc1cc(O)ccc1Sc1ccc(F)cc1N [III-4-19]
Ki [1]: 0.22 nM

Source: patent US12544463B2, “Deuterium substituted positron emission tomography (PET) imaging agents and their pharmacological application” (Five Eleven Pharma Inc., priority 2017, dated 2026)
